According to ChEMBL document CHEMBL4619735, “Design, synthesis and anti-influenza A virus activity of novel 2,4-disubstituted quinazoline derivatives” (Bioorg Med Chem Lett, 2020):
Calls of active or inactive are those of the source. The rule behind the calls is not given here.

Each compound was assayed on Influenza A virus (assay: Potency index, ratio of ribavirin IC50 to test compound IC50 for antiviral activity against Influenza A virus A/WSN/33(H1N1) infected in human 293T cells pretreated for 2 hrs followed by viral infection and measured after 24 hrs by Gaussia luciferase reporter gene assay). Conditions: not given.
Format: functional, A/WSN/1933(H1N1), HEK-293T
For `CN(C)c1nc(OCC(=O)Nc2ccccc2)c2ccccc2n1`, the “Ratio IC50” value was 4.1.

What follows are compounds tested on Influenza A virus (assay: Antiviral activity against Influenza A virus A/WSN/33(H1N1) infected in human 293T cells pretreated for 2 hrs followed by viral infection and measured after 24 hrs by Gaussia luciferase reporter gene assay). Conditions: A/WSN/1933(H1N1), HEK-293T.
Format: functional, organism-based
`O=C(COc1nc(N2CCCC2)nc2ccccc12)Nc1nccs1` gave an IC50 of 39.4 µM.
In the case of `O=C(COc1nc(N2CCc3ccccc3C2)nc2ccccc12)NCc1ccccc1`, the IC50 is reported as 17.7 µM.
`CCOc1ccccc1CNC(=O)COc1nc(N2CCCC2)nc2ccccc12` gave an IC50 of 17.7 µM.
With `O=C(O)COc1nc(N2CCCC2)nc2ccccc12` the IC50 was 60.1 µM.
In the case of `O=C(COc1nc(Cl)nc2ccccc12)NCc1ccccc1`, the IC50 is reported as 26.5 µM.
Compound `COc1ccc(OC(=O)NCCOc2nc(N3CCCC3)nc3ccccc23)cc1` has an IC50 of 55.3 µM.
`NC(=O)c1ncn([C@@H]2O[C@H](CO)[C@@H](O)[C@H]2O)n1` [RIBAVIRIN] showed an IC50 of 15.4 µM.
`CN(C)c1nc(OCC(=O)Nc2ccccc2)c2ccccc2n1` was tested, and the IC50 was 3.7 µM.
In the case of `O=C(NCCOc1nc(Cl)nc2ccccc12)c1ccccc1`, the IC50 is reported as 48 µM.
`CCOC(=O)COc1nc(N2CCCC2)nc2ccccc12` gave an IC50 of 16.6 µM.
Compound `O=C(NCCOc1nc(N2CCCC2)nc2ccccc12)c1ccc(C(F)(F)F)cc1` has an IC50 of 8.64 µM.
For `O=C(NCCOc1nc(N2CCCC2)nc2ccccc12)c1cccs1`, the IC50 was 18.2 µM.
`O=C(NCCOc1nc(N2CCc3ccccc3C2)nc2ccccc12)c1ccccc1` gave an IC50 of 4.19 µM.

Each compound was assayed on Influenza A virus (assay: Antiviral activity against Influenza A virus A/WSN/33(H1N1) infected in human 293T cells assessed as inhibition of viral replication at 10 uM pretreated for 2 hrs followed by viral infection and measured after 24 hrs by Gaussia luciferase reporter gene assay). Conditions: A/WSN/1933(H1N1), HEK-293T.
Format: functional, organism-based
`O=C(COc1nc(N2CCCC2)nc2ccccc12)Nc1nccs1` was tested, and the inhibition was “Active”.
`CCOc1ccccc1CNC(=O)COc1nc(N2CCCC2)nc2ccccc12` was tested, and the inhibition was “Active”.
For `O=C(COc1nc(N2CCCC2)nc2ccccc12)NC12CC3CC(CC(C3)C1)C2`, the inhibition was “inactive”.
In the case of `NCCOc1nc(N2CCCC2)nc2ccccc12`, the inhibition is reported as “inactive”.
With `O=C(NCCOc1nc(N2CCCC2)nc2ccccc12)c1ccccc1` the inhibition was “Active”.
`O=C(COc1nc(N2CCCC2)nc2ccccc12)Nc1ccc2ccccc2c1` was tested, and the inhibition was “inactive”.
For `O=C(NCCOc1nc(N2CCCC2)nc2ccccc12)C1CC1`, the inhibition was “Active”.
In the case of `O=C(NCCOc1nc(N2CCCC2)nc2ccccc12)C1CCCCC1`, the inhibition is reported as “inactive”.
With `O=C(COc1nc(N2CCCC2)nc2ccccc12)NC1CC1` the inhibition was “inactive”.
`CC(=O)c1ccc(C(=O)NCCOc2nc(N3CCCC3)nc3ccccc23)cc1` was tested, and the inhibition was “inactive”.
For `O=C(NCCOc1nc(N2CCc3ccccc3C2)nc2ccccc12)c1ccccc1`, the inhibition was “Active”.
